For one series, the system named is FM55 melanoma cells. The series is described as follows: Cell viability (XTT), FM55. The format is cell-based, human. As to the method:
(§1) Cell proliferation kit II (Roche Inc.) is based on calorimetric change of the yellow tetrazolium salt XTT in orange formazan dye by the respiratory chain of viable cells (Roehm, N W, et al., J Immunol Methods 142:257-265, 1991). Cells seeded at a concentration of 5000/well in 100 μl medium in a 96-well plate were treated with different drugs in the given concentration. After 24 or 48 h the cells were incubated, according to the manufacturer's protocol, with XTT labelling mixture. After 4 h the formazan dye is quantified using a scanning multiwell spectrophotometer with a 495-nm filter. The absorbance is directly correlated with number of viable cells. The standard absorbance curve was drawn by means of untreated cells seeded at a concentration of from 1000 to 10 000 cells/well with an increasing rate of 1000 cells/well. All standards and experiments were performed in triplicates.
5 different types of cell lines were seeded in 96-well plates (medium volume in a well was 100 μl), at a concentration of 10,000 cells/cm^2 in Minimal Essential Medium supplemented with fetal calf serum. When the cells had reached a concentration of 65,000 cells/cm^2, they were treated with different doses of podophyllotoxin and deoxypodophyllotoxin for 48 h. Cell viability was then assayed (see above). IC50 values for each inhibitor and cell line, calculated as the concentration, resulting in a 50% decrease in cell survival, are shown below. The results are based on 4 different experiments.
FM55 melanoma cells were cultured in the same way as described in Experiment 3 and were treated with different doses of podophyllotoxin analogues as described in Experiment 3.
A general note: Formazan colour is commonly taken as a measure of viable cells.

In series [1] the target is T1, IGF-1R (Homo sapiens, UniProt P08069). In words: IGF-1R phosphorylation/autophosphorylation in intact FM55 melanoma cells (immunoprecipitation, Western blotting, OD). Set-up: The cells were then isolated and subjected to immuno-precipitation of the IGF-1R; endogenous in cells; host or cells: FM55 melanoma cells. The format is cell-based. The settings on record: for Level of IGF-1R phosphorylation in intact cells: OD, control cells = 100%. As for the experimental part:
The isolated cells were lyzed in 10 ml ice-cold PBSTDS containing protease inhibitors (Carlberg, M., et al., J Biol Chem 271:17453-17462, 1996). 50 μl protein A or G agarose was added in 1 ml sample and incubated for 15 min at 4° C. on an orbital shaker. After centrifugation for 10 min at 10,000 r/min at 4° C. the supernatant was saved. The protein content was determined by a dye-binding assay with a reagent purchased from Bio-Rad. Bovine serum albumin was used as a standard. 15 μl Protein G Plus agarose and 5 μl anti-IGF-1R were added. After a 3 h incubation at 4° C. on an orbital shaker the precipitate was collected by pulse centrifugation in a micro centrifuge at 14,000×g for 10 s. The supernatant was discarded and the pellet was washed 3 times with PBSTDS.
Protein samples were solved in a 2×-sample buffer containing Laemmli buffer and 0.5% […] and boiled for 5 min at 96° C. Samples were separated by SDS-PAGE with a 4% stacking gel and 7.5% separation gel. Molecular weight markers (Bio Rad, Sweden) were run simultaneously in all experiments.
Following SDS-PAGE the proteins were transferred overnight to nitro-cellulose membranes (Hybond, Amersham, UK) and then blocked for 1 h at room temperature in a solution of 4% skimmed milk powder and 0.02% Tween 20 in PBS, pH 7.5. Incubations with the primary antibodies were performed for 1 h at room temperature, followed by 3 washes with PBS with Tween and incubation with the second antibody for 1 h room temperature. After another 3 washes the membranes were incubated with Streptavidin-labelled horseradish peroxidase for 30 min and then detected using Amersham ECL system (Amersham, UK) The films were scanned by Fluor-S (BioRad).
Melanoma cells (line FM55) were seeded in 6-cm dishes, at a concentration of 10,000 cells/cm^2 in Minimal Essential Medium supplemented with 10% fetal calf serum (FCS). […] Treatment with 0 μM represents untreated controls. The cells were then isolated and subjected to immuno-precipitation of the IGF-1R. The immunoprecipitates, containing purified IGF-1R, were fractionated by gel electrophoresis. Phosphorylation of IGF-1R was detected by an anti-phosphotyrosine antibody using Western blotting. The obtained signals represent phosphorylated IGF-1R and the intensity of signals represents amounts of phosphorylated IGF-1R. Details of the methods used are described above. The intensities are quantified by a scanner, which measures the optical density (OD) of the signals. For the control cells the OD is set at 100%. The blank (OD 0%) represents the background. The results given in Table 1 below are mean values of 3 experiments.
FM 55 melanoma cells were cultured in the same way as described in Experiment 1. When reaching a density of 65,000 cells/cm^2 in the dishes, they were treated for 1 h with 0.05 μM podophyllotoxin, deoxypodophyllotoxin, acetylpodophyllotoxin, epipodophyllotoxin, 4′-demethyl-podophyllotoxin and podophyllotoxone. The cells were then harvested for assay and quantification of IGF-1R autophosphorylation as described above. The values shown in Table 2 represent means of 3 experiments.
Target sequence in this assay (P08069 31-1367): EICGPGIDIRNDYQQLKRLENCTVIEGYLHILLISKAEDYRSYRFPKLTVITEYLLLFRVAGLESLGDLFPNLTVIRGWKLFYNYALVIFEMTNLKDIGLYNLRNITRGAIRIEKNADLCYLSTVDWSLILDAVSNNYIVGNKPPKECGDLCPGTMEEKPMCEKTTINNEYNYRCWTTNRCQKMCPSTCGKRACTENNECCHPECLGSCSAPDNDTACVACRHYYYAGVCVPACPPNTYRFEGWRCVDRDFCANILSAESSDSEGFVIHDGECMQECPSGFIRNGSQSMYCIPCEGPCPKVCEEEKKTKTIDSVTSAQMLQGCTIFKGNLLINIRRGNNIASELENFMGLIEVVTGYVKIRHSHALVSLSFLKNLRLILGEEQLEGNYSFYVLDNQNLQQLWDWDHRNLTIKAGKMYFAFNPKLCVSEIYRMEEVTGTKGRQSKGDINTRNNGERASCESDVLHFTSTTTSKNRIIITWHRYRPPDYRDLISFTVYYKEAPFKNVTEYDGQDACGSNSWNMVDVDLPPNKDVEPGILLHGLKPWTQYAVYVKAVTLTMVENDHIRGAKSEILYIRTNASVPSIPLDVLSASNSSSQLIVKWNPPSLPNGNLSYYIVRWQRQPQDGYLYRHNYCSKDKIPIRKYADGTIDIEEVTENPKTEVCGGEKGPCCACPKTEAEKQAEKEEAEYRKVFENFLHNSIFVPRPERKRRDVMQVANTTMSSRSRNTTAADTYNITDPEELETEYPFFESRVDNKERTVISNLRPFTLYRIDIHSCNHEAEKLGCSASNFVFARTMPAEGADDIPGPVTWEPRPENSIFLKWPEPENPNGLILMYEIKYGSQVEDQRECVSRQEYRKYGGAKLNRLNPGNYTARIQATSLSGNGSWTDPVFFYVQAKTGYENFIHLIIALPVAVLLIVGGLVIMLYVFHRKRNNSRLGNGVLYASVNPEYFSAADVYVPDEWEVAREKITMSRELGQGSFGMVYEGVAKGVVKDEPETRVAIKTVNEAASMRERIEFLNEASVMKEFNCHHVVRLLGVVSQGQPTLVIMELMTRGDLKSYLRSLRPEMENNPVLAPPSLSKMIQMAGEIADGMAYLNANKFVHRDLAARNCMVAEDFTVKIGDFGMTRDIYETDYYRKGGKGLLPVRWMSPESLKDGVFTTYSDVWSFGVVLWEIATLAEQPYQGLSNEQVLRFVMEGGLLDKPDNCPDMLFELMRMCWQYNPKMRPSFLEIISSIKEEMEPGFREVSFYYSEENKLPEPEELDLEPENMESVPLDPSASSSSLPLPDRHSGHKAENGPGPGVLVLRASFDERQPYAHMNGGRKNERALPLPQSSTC

The subject of series [2] is HL60/Nov acute myeloid leukemia cells (cytostatic-resistant). The series is described as follows: Viability of leukemia cells, HL60/Nov. The series is classed as cell-based, human. The note with it: read-out: IC50 for viability of leukemia cell lines. As for the experimental part: (§2) The human chronic myeloid leukemia K562/S and K562/Vcr30 lines and the acute myeloid leukemia cell lines HL60/0 and HL60/Nov were obtained from ATCC. The K562/S and HL60/0 are wild type (non-resistant) cells, whereas K562/Vcr30 and HL60/Nov are cytostatic-resistant sublines. All leukemia cell lines were cultured in RPMI 1640 medium supplemented with 10% fetal bovine serum and with 2 mM glutamine, 1% benzyl-penicillin and streptomycin. The cells were grown in tissue culture flasks maintained at 95% air/5% CO2 atmosphere at 37° C. in a humidified incubator. For the experiments 25,000 cells were cultured in 60-mm plastic dishes or 96-well plastic plates. The experiments on leukemia cells were performed in collaboration with Associate professor Sigurd Vitols, Department of Pharmacology, Karolinska Hospital (Stockholm, Sweden).
as §1
(§3) The leukemia cell lines K562/S, K562/Vcr 30, HL60/0 and HL60/Nov were proven to express the IGF-1R. This was assayed by Western blotting analysis, as described in Methods and Experiment 1 and 2. The 4 leukemia cell lines were seeded in 96-well plates (medium volume in a well was 100 μl), in RPMI40 medium supplemented with fetal calf serum. After 24 h podophyllotoxin, deoxypodophyllotoxin and other derivatives were added at different concentrations for 72 h. Cell viability was then assayed (see above). IC50 values for each inhibitor and cell lines are shown below (Table 5). The results are based on 3 different experiments.

Series [3] has as its system K562/S chronic myeloid leukemia cells. In words: Viability of leukemia cells, K562/S. The format is cell-based, human. The settings on record: 72 h, read-out: IC50 for viability of leukemia cell lines. As for the experimental part: as §2, §1, §3
Series [4] concerns K562/Vcr30 chronic myeloid leukemia cells (cytostatic-resistant). In words: Viability of leukemia cells, K562/Vcr30. The format is cell-based, human. The settings on record: K562/Vcr30, 72 h, read-out: IC50 for viability of leukemia cell lines. As to the method:
as §2, §1, §3

Series [5] relates to HL60 acute myeloid leukemia cells. The series is described as follows: Viability of leukemia cells, HL60. The settings on record: HL60, 72 h, read-out: IC50 for viability of leukemia cell lines. The series is classed as cell-based, human. As to the method: as §2, §1, §3
For a further series, the system named is rats. The settings on record: cited from earlier work.
A short description of another series: Water solubility. The series is classed as physicochemical.
For a further series, the system named is SK-MEL-28 melanoma cells. The series is described as follows: Cell viability (XTT), SK-MEL-28. The format is cell-based, human. The settings on record: 48 h. As to the method:
as §1
(§4) 5 different types of cell lines were seeded in 96-well plates (medium volume in a well was 100 μl), at a concentration of 10,000 cells/cm^2 in Minimal Essential Medium supplemented with fetal calf serum. When the cells had reached a concentration of 65,000 cells/cm^2, they were treated with different doses of podophyllotoxin and deoxypodophyllotoxin for 48 h. Cell viability was then assayed (see above). […]

The subject of series [6] is MCF-7 breast cancer cells. In words: Cell viability (XTT), MCF-7. The format is cell-based, human. The settings on record: 48 h. As for the experimental part: as §1, §4
Series [7] concerns the target T1, IGF-1R. In words: Effect on IGF-1R (method not given).
Target sequence in this assay (P08069 31-1367, species assumed): as the sequence (P08069 31-1367) above
A further series deals with microtubules. The note with it: cell free systems; cited from earlier work.
A further series deals with T2, IGF-1R beta-subunit (Homo sapiens, UniProt P08069).
T2 construct: host or cells: melanoma cells
The settings on record: melanoma cells, 15 microM; cited from earlier work.

Where [8] appears, read: FM55, Experiment 4 (Table 4), read-out: IC50 for viability of FM55 cells.
Setting [9] is: FM55 cells, 0.05 μM, 1 h, podophyllotoxin = 1, mean of 3.
The mark [10] stands for this setting: FM55 cells, 1 μM, 1 h, mean of 3.
Setting [11] is: FM55 cells, 15 μM, 1 h, mean of 3.
[12] abbreviates: FM55 cells, 60 μM, 1 h, mean of 3.

These results are taken from US7709526B2, “Use of cyclolignans and new cyclolignans” (Biovitrum AB, priority 2001, dated 2010).

Read-outs that look alike come from different tables or passages of the source.

T2 sequence (P08069 31-1367): as above

On to `COc1cc([C@@H]2c3cc4c(cc3[C@H](O)[C@H]3COC(=O)[C@H]23)OCO4)cc(OC)c1O` [4′-demethylpodophyllotoxin], for which the IC50 (as a rule, the point on the concentration scale where inhibition reaches its midpoint) turned out to be 40 nM with FM55 melanoma cells (setting [8]); 18 nM in series [2] (72 h); 22 nM in [3]; 50 nM in [4]; 20 nM in [5]. Besides, on IGF-1R [1] (setting [9]), the “Inhibitory effect on IGF-1R autophosphorylation in intact cells in relation to podophyllotoxin, Relative potency” value (“Inhibitory effect … Relative potency” for short) amounted to 0.5.
On to `COc1cc([C@@H]2c3cc4c(cc3[C@H](OC(C)=O)[C@H]3COC(=O)[C@H]23)OCO4)cc(OC)c1OC` [Acetylpodophyllotoxin, acetylpodophyllotoxin], for which the IC50 worked out at 30 nM in the series with FM55 melanoma cells (setting [8]); 46 nM in [2] (72 h); 80 nM in series [3]; 140 nM in series [4]; 48 nM in [5]. Also, the “Inhibitory effect … Relative potency” value at IGF-1R [1] was found to be 1.3. The “inhibition of IGF-1R phosphorylation (in words)” value against IGF-1R [1] (FM55 cells, 0.05 μM, 1 h) is recorded as “potent inhibitors”. For the same molecule, the LD50 in rats in the series on rats is listed as 185 mg/kg.
Regarding `COc1cc([C@@H]2c3cc4c(cc3C[C@H]3COC(=O)[C@@H]32)OCO4)cc(OC)c1OC` [Deoxypodophyllotoxin, deoxypodophyllotoxin], the IC50 in the series with FM55 melanoma cells (setting [8]) was 40 nM; in the series with FM55 melanoma cells (FM55, melanoma, 48 h (Table 3), read-out: IC50 for cell viability), 40 nM; in the series with SK-MEL-28 melanoma cells, 40 nM; in series [2] (72 h), 2 nM; in series [3], 3 nM; in series [4], 4 nM. Also, the values for the IC50 in series [6] and in [5] were 30 nM and 3 nM, respectively. Further, the water solubility result in the series “Water solubility” is listed as “about 0.01 mM”. In addition, at IGF-1R [1] (FM55 cells, 0.05 μM, 1 h), the “inhibition of IGF-1R phosphorylation (in words)” value was “potent inhibitors”. The “Inhibitory effect … Relative potency” value on IGF-1R [1] (setting [9]) amounted to 0.8. Also, in the series on rats (relative to podophyllotoxin), the “LD50 in rats, fold higher than podophyllotoxin” value is recorded as greater than 15 fold.
As for `COc1cc(C2c3cc4c(cc3C(OC3OC5COC(c6ccccc6)OC5C(O)C3O)C3COC(=O)C23)OCO4)cc(OC)c1OC` [podophyllotoxin-4,6-O-benzylidene-β-D-glucopyranoside], the “effect on IGF-1R / inhibition of IGF-1R activity (in words)” value on IGF-1R [7] is “completely disappeared”.
For `COc1cc([C@@H]2c3cc4c(cc3C(=O)[C@H]3COC(=O)[C@H]23)OCO4)cc(OC)c1OC` [Podophyllotoxone, podophyllotoxone], on IGF-1R [1], the “Inhibitory effect … Relative potency” value was determined as 0.3. In addition, the IC50 in series [2] (72 h), in series [3], in series [4] and in series [5] was greater than 500 nM each time.
`COc1cc([C@@H]2c3cc4c(cc3[C@@H](O[C@@H]3O[C@@H]5CO[C@@H](C)O[C@H]5[C@H](O)[C@H]3O)[C@H]3COC(=O)[C@H]23)OCO4)cc(OC)c1O` [Etoposide, etoposide]: the effect on microtubules result in the series on microtubules is “no effect on microtubules”.
With `COc1cc([C@@H]2c3cc4c(cc3[C@@H](O)[C@H]3COC(=O)[C@H]23)OCO4)cc(OC)c1OC` [Epipodophyllotoxin, epipodophyllotoxin], the “Inhibitory effect … Relative potency” value at IGF-1R [1] (setting [9]) amounted to 0.5. Besides, the IC50 was 90 nM in series [2] (Homo sapiens, HL-60, 72 h); 195 nM in series [3] (Homo sapiens); 450 nM in series [4] (Homo sapiens); 127 nM in series [5] (Homo sapiens, HL-60). Besides, the LD50 in rats with rats is listed as greater than 200 mg/kg.
Consider `CC/C(=C(\c1ccccc1)c1ccc(OCCN(C)C)cc1)c1ccccc1` [Tamoxifen, tamoxifen], for which, at IGF-1R beta-subunit, the “tyrosine phosphorylation of the IGF-1R beta-subunit” value was “efficiently blocked”. Further, the “Level of IGF-1R phosphorylation in intact cells” value at IGF-1R [1] (setting [10]) is 95%; on IGF-1R [1] (setting [11]), 20%; on IGF-1R [1] (setting [12]) it was 10%.
Consider `O=c1c(-c2ccc(O)cc2)coc2cc(O)cc(O)c12` [Genistein, genistein], for which the “Level of IGF-1R phosphorylation in intact cells” value was 100% on IGF-1R [1] (setting [10]), 96% at IGF-1R [1] (setting [11]) and 35% on IGF-1R [1] (setting [12]). Moreover, at IGF-1R [1] (FM55 cells, 1, 15, 60 μM, genistein statement at 60 μM), the “effect on IGF-1R phosphorylation (in words)” value is listed as “partial inhibitory effect”.
